# Measurements taken from article PMC8842277, “Highly Antiproliferative Latonduine and Indolo[2,3-c]quinoline Derivatives: Complex Formation with Copper(II) Markedly Changes the Kinase Inhibitory Profile” (Journal of Medicinal Chemistry, 2022).
# Values joined by “and” are separate entries in the source; they are usually repeats but may differ in a detail not shown here. Equal values may be shown once. Read-outs that look alike come from different tables or passages of the source.
# Experiments:
# [1] = Proton dissociation constants by UV–vis titration; assay type: physicochemical; settings: 30–70% (w/w) DMSO–water, 298 K, I = 0.10 M (KCl); for pKa: DMSO:water 30:70 (w/w) solvent mixture
# Description: The protonation processes of HL^1nm and its morpholine counterpart HL^1 (Chart 3) and the solution stability of their copper(II) complexes (1nm and 1) were characterized by UV–vis spectrophotometry. […] Based on the characteristic changes in the UV–vis spectra for HL^1nm in the pH range 2–6 (Figure 3a), two relatively well-separated proton dissociation processes were observed and their pKa values were determined (Table 1).
# (§1) An Agilent Carry 8454 diode array spectrophotometer was used to record the UV–visible (UV–vis) spectra in the interval 200–800 nm. The path length was 2 or 0.5 cm. Spectrophotometric titrations were performed on samples containing the proligands HL^1, HL^1nm, or their copper(II) complexes (1 and 1nm; see Chart 2) by a KOH solution in the presence of 0.1 M KCl in a DMSO:water 30:70 (w/w) mixture as a solvent at 25.0 ± 0.1 °C in the pH range from 2 to 11. […] An Orion 710A pH meter equipped with a Metrohm combined electrode (type 6.0234.100) and a Metrohm 665 Dosimat burette were used for the pH measurements and titrations. […] The average water ionization constant (pKw) is 14.52 ± 0.05, which corresponds well to the literature data.[103] Argon was passed over the solutions during the titrations. Proton dissociation constants (pKa) of the ligand, overall stability constants (log β) of the copper(II) complexes, and the individual spectra of the various species present in the solution were calculated by the computer program PSEQUAD.[104] β (MpLqHr) is defined for the general equilibrium pM + qL + rH MpLqHr as β (MpLqHr) = [MpLqHr]/[M]^p[L]^q[H]^r where M denotes the copper(II) ion and L the completely deprotonated ligand. The calculations were always made from the experimental titration data measured in the absence of any precipitate in the solution.
# [2] = test system: multidrug-resistant Colo320 human colon adenocarcinoma cells; test: MTT antiproliferative assay; assay type: cell-based; settings: for selectivity factor (SF) Colo320: IC50 MRC-5/IC50 Colo320; for IC50: MTT, 72 h
# Description: (§2) The in vitro antiproliferative activity of the compounds was tested in doxorubicin-sensitive Colo205 and multidrug-resistant Colo320 human colon adenocarcinoma cell lines as well as in normal human embryonal lung fibroblast cells (MRC-5) by MTT assay.
# (§3) Human colonic adenocarcinoma cell lines Colo 205 doxorubicin-sensitive (ATCC-CCL-222) and Colo 320/MDR-LRP multidrug resistant over-expressing ABCB1 (MDR1)-LRP (ATCC-CCL-220.1) were purchased from LGC Promochem, Teddington, UK. The cells were cultured in an RPMI 1640 medium supplemented with 10% heat-inactivated fetal bovine serum, 2 mM L-glutamine, 1 mM Na-pyruvate, and 10 mM HEPES. The semi-adherent human colon cancer cells were detached with Trypsin-Versene (EDTA) solution for 5 min at 37 °C. An MRC-5 human embryonal lung fibroblast cell line (ATCC CCL-171) was purchased from LGC Promochem, Teddington, UK. The cells were cultured in Eagle’s minimal essential medium (EMEM, containing 4.5 g L^–1 glucose) supplemented with a non-essential amino acid mixture, a selection of vitamins, and 10% heat-inactivated fetal bovine serum. The HCT-116 colon carcinoma cells and isogenic p53-knock-out subline were a gift of Prof. Bert Vogelstein from The Johns Hopkins Oncology Center. Cells were cultured in McCoy’s 5A medium supplemented with 10% heat-inactivated fetal bovine serum and 4 mM L-glutamine. All cell lines were incubated at 37 °C, in a 5% CO2, 95% air atmosphere.
# (§4) MRC-5 non-cancerous human embryonic lung fibroblast and human colonic adeno-carcinoma cell lines (doxorubicin-sensitive Colo 205 and multidrug resistant Colo 320 colonic adenocarcinoma cells) were used to determine the effect of compounds on cell growth. The effects of increasing concentrations of compounds on cell growth were tested in 96-well flat-bottomed microtiter plates. The compounds were dissolved in DMSO and stock solutions of 10 mM were prepared. These were further diluted in the appropriate cell culture medium by twofold serial dilution starting from 100 or 10 μM for the compounds. The adherent human embryonal lung fibroblast cells were cultured in 96-well flat-bottomed microtiter plates using EMEM supplemented with 10% heat-inactivated fetal bovine serum. The density of the cells was adjusted to 1 × 10^4 cells in 100 μL per well, the cells were seeded for 24 h at 37 °C, 5% CO2, then the medium was removed from the plates containing the cells, and the dilutions of compounds previously made in a separate plate were added to the cells in 200 μL. In the case of the colonic adenocarcinoma cells, the twofold serial dilutions of compounds were prepared in 100 μL of RPMI 1640, horizontally. The semi-adherent colonic adenocarcinoma cells were treated with Trypsin-Versene (EDTA) solution. They were adjusted to a density of 1 × 10^4 cells in 100 μL of RPMI 1640 medium and were added to each well, with the exception of the medium control wells. The final volume of the wells containing compounds and cells was 200 μL. The culture plates were incubated at 37 °C for 72 h; at the end of the incubation period, 20 μL of MTT (thiazolyl blue tetrazolium bromide, Sigma) solution (from a stock solution of 5 mg mL^–1) was added to each well. After incubation at 37 °C for 4 h, 100 μL of sodium dodecyl sulfate (SDS) (Sigma) solution (10% in 0.01 M HCI) was added to each well and the plates were further incubated at 37 °C overnight. Cell growth was determined by measuring the optical density (OD) at 540/630 nm with a Multiscan EX ELISA reader (Thermo Labsystems, Cheshire, WA, USA). […] Curves were fitted by GraphPad Prism software[57] using the sigmoidal dose–response model (comparing variable and fixed slopes). The IC50 values were obtained from at least three independent experiments. Tests in adherent HCT-116 colon carcinoma cells and an isogenic p53-knock-out subline thereof were performed in a similar manner, with 1.5 × 10^3 cells seeded in 100 μL of McCoy’s 5A medium (Sigma-Aldrich) per well. […]
# [3] = test system: normal human embryonal lung fibroblast cells (MRC-5); test: MTT antiproliferative assay; assay type: cell-based; settings: read-out: IC50 MRC-5 benign, mean
# Description: as §2, §3, §4
# [4] = test system: doxorubicin-sensitive Colo205 human colon adenocarcinoma cells; test: MTT antiproliferative assay; assay type: cell-based; settings: for selectivity factor (SF) Colo205: IC50 MRC-5/IC50 Colo205; for IC50: MTT, 72 h
# Description: as §2, §3, §4
# [5] = Thermodynamic solubility, UV–vis of saturated solutions
# Description: The concentration of the compounds was determined by UV–vis spectrophotometry using stock solutions of the compounds with a known concentration dissolved in pure DMSO and 50% (v/v) DMSO/buffered aqueous solution for the calibration.
# [6] = Overall stability constants of copper(II) complexes by UV–vis titration; assay type: physicochemical; settings: 30–70% (w/w) DMSO–water, 298 K
# Text: The tridentate coordination via the N,N,N donor set is assumed in [Cu(HL^1nm)]^2+ at such low pH. […] The deprotonation of the non-coordinating hydrazonic nitrogen is likely, and complex [Cu(L^1nm)]^+ is formed. […] However, the absorbance is decreased in the whole wavelength range due to precipitate formation. By the deconvolution of the recorded UV–vis spectra, overall stability constants for the complexes [Cu(HL^1nm)]^2+ and [Cu(L^1nm)]^+ were computed, and log β for [Cu(L^1nm)(OH)] was only estimated (Table 1). In the case of the morpholine hybrid, a somewhat different speciation was obtained as the presence of the pendant morpholine moiety had to be taken into consideration. Log β values for [CuH(HL^1)]^3+, [CuH(L^1)]^2+, and [Cu(L^1)]^+ were computed from the spectrophotometric titration data (Table 1). Since the molar absorbance spectra of [CuH(HL^1)]^3+ and [CuH(L^1)]^2+ complexes resemble those of [Cu(HL^1nm)]^2+ and [Cu(L^1nm)]^+ (Figure 4b), the same coordination modes are likely in these species in couples. […] Increasing the pH (pH > 5), the absorbance is decreased in the whole wavelength range, no isosbestic points are found (indicating the formation of some precipitate), while the λmax is increased. Formation of a mixed hydroxido species [CuH(L^1)(OH)]^+ is also possible. However, the deprotonation of the morpholinium group can take place as well (formation of [Cu(L^1)]^+) in this pH range. As these two processes are overlapping, the two species could not be well distinguished, and the obtained stability constant is quite uncertain.
# as §1
# Colo320 cells = test: Apoptosis assay, Annexin-V-FITC/PI flow cytometry; settings: 3 h induction
# Description: An apoptosis assay was performed by flow cytometry via the analysis of multidrug-resistant Colo320 cells stained with Annexin-V-FITC and propidium iodide (PI).
# Colo320 cells were treated at the indicated concentration of the compounds. The dual parametric dot plots combining Annexin-V (FL1) and PI (FL3) fluorescence show the viable cell population in the lower left quadrant Annexin-V–/PI– (Q4), the early apoptotic cells in the lower right quadrant Annexin-V+/PI– (Q3), and the late apoptotic and necrotic cells in the upper right quadrant Annexin-V+/PI+ (Q2).
# The assay was carried out for selected compounds using an Annexin V-FITC Apoptosis Detection Kit (cat. no. APOAF-50TST) from Sigma according to the manufacturer’s instructions. The concentration of the Colo320 cell suspension was adjusted to approximately 0.5 × 10^6 cells/mL in an RPMI 1640 medium, and the cell suspension was distributed in 1 mL of aliquots into a 24-well plate and then incubated overnight at 37 °C and 5% CO2. On the following day, the medium was removed and replaced by 1 mL of RPMI medium containing the compounds except the control samples. […] After the incubation period, the samples were washed with PBS and fresh RPMI 1640 medium was added to the samples. The cells were incubated overnight at 37 °C and 5% CO2. The next day, 200 μL of 0.25% Trypsin (Trypsin-Versen) was added to the samples until cells appeared detached followed by the addition of 400 μL of RPMI 1640 medium supplemented with 10% bovine serum. The cells were collected in Eppendorf tubes and centrifuged at 2000g for 2 min. The harvested cells were resuspended in fresh serum-free RPMI 1640 culture medium. After this step, the apoptosis assay was carried out according to the instructions of the manufacturer. The fluorescence was analyzed immediately using a ParTec CyFlow flow cytometer (Partec GmbH, Münster, Germany).
# • Apoptosis and DNA binding studies […]
# [7] = pH 5, 20 mM MES buffer, water, 298 K
# [8] = pH 7.4, 20 mM HEPES, water, 298 K
compound,measurement,setting,value
C(=NNC1=NCc2ccccc2-c2c1[nH]c1ccccc21)c1ccccn1.[Cl][Cu][Cl] [1nm],pKa [Cu(HL^1nm)]^2+,[1],4.32
same,pKa [Cu(L^1nm)]^+,[1],7.09
CC(=NNC1=NCc2ccccc2-c2c1[nH]c1ccc(Br)cc21)c1ccccn1.[Cl][Cu][Cl] [4nm],selectivity factor (SF) Colo320,[2],0.54
same,IC50,[2],0.35 µM
same,IC50,[3]; 72 h,0.19 µM
same,selectivity factor (SF) Colo205,[4],2.29
same,IC50,[4],0.083 µM
C(=NNc1nc2ccccc2c2c1[nH]c1ccccc12)c1ccccn1.[Cl][Cu][Cl] [5nm],Thermodynamic solubility (S),[5]; [7],134 µM
same,Thermodynamic solubility (S),[5]; [8],5.7 µM
Brc1ccc2[nH]c3c(NN=Cc4ccccn4)nc4ccccc4c3c2c1.[Cl][Cu][Cl] [6nm],Thermodynamic solubility (S),[5]; [7],8.9 µM
same,Thermodynamic solubility (S),[5]; [8],3.1 µM
C(=N\N=C1/NCc2ccccc2-c2c1[nH]c1ccccc21)/c1ccccn1 [HL^1nm],pKa,[1]; read-out: pKa1,2.32 ± 0.01
same,pKa,[1]; read-out: pKa2,4.75 ± 0.01
same,log β [Cu(HL^1nm)]^2+,[6]; I = 0.10 M (KCl),8.33 and 8.33 ± 0.01
same,log β [Cu(L^1nm)]^+,[6]; I = 0.10 M (KCl),4.01 and 4.01 ± 0.01
same,log β [Cu(L^1nm)(OH)],[6]; only estimated,–3.1 ± 0.1
C/C(=N\N=C1/NCc2ccccc2-c2c1[nH]c1ccc(Br)cc21)c1ccccn1 [HL^4nm],IC50,"[2]; Homo sapiens, COLO 320",8.19 µM
same,selectivity factor (SF) Colo320,[2],0.01
same,IC50,"[3]; Homo sapiens, MRC5, 72 h",0.111 µM
same,IC50,"[4]; Homo sapiens, COLO 205",0.091 µM
same,selectivity factor (SF) Colo205,[4],1.22
C(=NN=c1[nH]c2ccccc2c2c1[nH]c1ccccc12)c1ccccn1 [HL^5nm],Thermodynamic solubility (S),[5]; [7],1.1 µM
same,Thermodynamic solubility (S),[5]; [8],0.3 µM
"c1ccc2c(c1)Nc1c(ccc3ccccc13)S2 [M627, 12H-benzo[α]phenothiazine, reference compound]",Cell death % Q1,Colo320 cells; 10 µM,4.59%
same,Early apoptosis % Q3,Colo320 cells; 10 µM,12.4%
same,Late apoptosis and necrosis % Q2,Colo320 cells; 10 µM,31.5%
same,Cell death % Q1,Colo320 cells; 20 µM,7.85%
same,Early apoptosis % Q3,Colo320 cells; 20 µM,11.1%
same,Late apoptosis and necrosis % Q2,Colo320 cells; 20 µM,26.1%
"Brc1ccc2[nH]c3c(NN=Cc4ccc(CN5CCOCC5)cn4)nc4ccccc4c3c2c1.[Cl][Cu][Cl] [compound 6, CuCl2(HL^6)·1.5H2O]",selectivity factor (SF) Colo320,[2],0.26
same,IC50,[2],0.851 µM
same,IC50,[3]; 72 h,0.221 µM
same,selectivity factor (SF) Colo205,[4],0.20
same,IC50,[4],1.09 µM
same,Thermodynamic solubility (S),[5]; pH 5,6.6 µM
same,Thermodynamic solubility (S),[5]; pH 7.4,0.4 µM
"CC(=NNc1nc2ccccc2c2c1[nH]c1ccccc12)c1ccc(CN2CCOCC2)cn1.[Cl][Cu][Cl] [compound 7, CuCl2(HL^7)·0.5H2O]",selectivity factor (SF) Colo320,[2],4.38
same,IC50,[2],0.149 µM
same,IC50,[3]; 72 h,0.652 µM
same,selectivity factor (SF) Colo205,[4],6.65
same,IC50,[4],0.098 µM
same,Thermodynamic solubility (S),[5]; pH 5,89.7 µM
same,Thermodynamic solubility (S),[5]; pH 7.4,38.3 µM
"COc1cccc2c1C(=O)c1c(O)c3c(c(O)c1C2=O)C[C@@](O)(C(=O)CO)C[C@@H]3O[C@H]1C[C@H](N)[C@H](O)[C@H](C)O1 [doxorubicin, reference compound]",IC50,"[2]; Homo sapiens, COLO 320",5.43 µM
same,selectivity factor (SF) Colo320,[2],2.03
same,IC50,"[3]; Homo sapiens, MRC5, 72 h",11 µM
same,IC50,"[4]; Homo sapiens, COLO 205",0.712 µM
same,selectivity factor (SF) Colo205,[4],15.44
